Source: patent US6737383B1, “Herbicidal oxadiazolidines” (priority 1999, dated 2004)

Experiments:
Russian thistle [1] = experiment: Test E Russian thistle; type: in vivo, Salsola kali; conditions: Postemergence
Method: […] A mixture of sandy loam soil and greenhouse potting mix in a 60:40 ratio was used for the postemergence test.
(§1) Plantings of these crops and weed species were adjusted to produce plants of appropriate size for the postemergence test. All plant species were grown using normal greenhouse practices. Crop and weed species include annual bluegrass (Poa annua), blackgrass (Alopecurus myosuroides), black nightshade (Solanum nigra), chickweed (Stellaria media), common poppy (Papaver rhoeas), deadnettle (Lamium amplexicaule), downy brome (Bromus tectorum), field violet (Viola arvensis), galium (Galium aparine), green foxtail (Setaria viridis), Italian ryegrass (Lolium multiflorum), jointed goatgrass (Aegilops cylindrica), kochia (Kochia scoparia), lambsquarters (Chenopodium album), littleseed canarygrass (Phalaris minor), rape (Brassica napus), redroot pigweed (Amaranthus retroflexus), Russian thistle (Salsola kali), scentless chamomile (Matricaria inodora), spring barley (Hordeum vulgare), sugar beet (Beta vulgaris), sunflower (Helianthus annuus), ivyleaf speedwell (Veronica hederaefolia), spring wheat (Triticum aestivum), winter wheat (Triticum aestivum), wild buckwheat (Polygonum convolvulus), wild mustard (Sinapis arvensis), wild oat (Avena fatua), windgrass (Apera spica-venti) and winter barley (Hordeum vulgare).
(§2) Treated plants and untreated controls were maintained in a greenhouse for approximately 21 to 28 days, after which all treated plants were compared to untreated controls and visually evaluated. […] A dash response (-) means no test result.

wild oat = experiment: Test E wild oat; type: in vivo, Avena fatua; conditions: Postemergence
Method: (§3) Compounds evaluated in this test were formulated in a non-phytotoxic solvent mixture which included a surfactant and applied to plants that were in the 1- to 4-leaf stage (postemergence application). A mixture of sandy loam soil and greenhouse potting mix in a 60:40 ratio was used for the postemergence test.
as §1, §2

redroot pigweed = experiment: Test E redroot pigweed; type: in vivo, Amaranthus retroflexus; conditions: Postemergence
Method: as §3, §1, §2

lambsquarters [2] = experiment: Test E lambsquarters; type: in vivo, Chenopodium album; conditions: Preemergence
sunflower [3] = experiment: Test E sunflower; type: in vivo, Helianthus annuus; conditions: Postemergence
Method: as §1, with “Plantings of these crops and weed species were adjusted to produce plants of appropriate size for the postemergence test.” left out
as §2

downy brome = experiment: Test E downy brome; type: in vivo, Bromus tectorum; conditions: Preemergence
spring barley = experiment: Test E spring barley; type: in vivo, Hordeum vulgare; conditions: Postemergence
Summary of the method: (§4)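 Visually scored herbicidal effect relative to untreated plants, taken ~21 to 28 days post-application; compound in solvent with surfactant; postemergence sprays at the 1- to 4-leaf stage.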

field violet = experiment: Test E field violet; type: in vivo, Viola arvensis; conditions: Postemergence
Method: as §3, §1, §2

ivyleaf speedwell = experiment: Test E postemergence ivyleaf speedwell; type: in vivo, Veronica hederaefolia
Method: as §3, §1, §2

sugar beet = experiment: Test E sugar beet; type: in vivo, Beta vulgaris; conditions: Preemergence
blackgrass = experiment: Test E blackgrass; type: in vivo, Alopecurus myosuroides; conditions: Postemergence
Summary of the method: as §4

Russian thistle [4] = experiment: Test E Russian thistle; type: in vivo, Salsola kali; conditions: Preemergence
annual bluegrass = experiment: Test E annual bluegrass; type: in vivo, Poa annua; conditions: Preemergence
littleseed canarygrass = experiment: Test E littleseed canarygrass; type: in vivo, Phalaris minor; conditions: Postemergence
Method: as §3, §1, §2

lambsquarters [5] = experiment: Test E lambsquarters; type: in vivo, Chenopodium album; conditions: Postemergence
Method: as §3, §1, §2

wild mustard = experiment: Test E wild mustard; type: in vivo, Sinapis arvensis; conditions: Preemergence
sunflower [6] = experiment: Test E sunflower; type: in vivo, Helianthus annuus; conditions: Preemergence
deadnettle = experiment: Test E deadnettle; type: in vivo, Lamium amplexicaule; conditions: Postemergence
Method: as §3, §1, §2

[7] = Rate 250 g/ha, 0 to 100 scale (0 no effect, 100 complete control)
[8] = Rate 500 g/ha, 0 to 100 scale, 0 no effect, 100 complete control
[9] = Rate 125 g/ha, 0 to 100 scale (0 no effect, 100 complete control)
[10] = Rate 500 g/ha, 0 to 100 scale where 0 is no effect and 100 is complete control

CC(C)N(C(=O)n1oc(=O)n(C(C)C)c1=O)c1ccc(Cl)cc1 [Compound 114]
Plant response rating, Russian thistle (Russian thistle [1]; Rate 125 g/ha, 0 to 100 scale): 0
Plant response rating, Russian thistle (Russian thistle [1]; [7]): 0
Plant response rating, Russian thistle (Russian thistle [1]; [8]): 0
Plant response rating, Wild oat (wild oat; Rate 125 g/ha, 0 to 100 scale): 0
Plant response rating, Wild oat (wild oat; [7]): 0
Plant response rating, Wild oat (wild oat; [8]): 0
Plant response rating, Redroot pigweed (redroot pigweed; Rate 125 g/ha, 0 to 100 scale): 15
Plant response rating, Redroot pigweed (redroot pigweed; [7]): 10
Plant response rating, Redroot pigweed (redroot pigweed; [8]): 20
Plant response rating, Lambsquarters (lambsquarters [2]; [9]): 50
Plant response rating, Lambsquarters (lambsquarters [2]; Rate 250 g/ha, 0 to 100 scale): 100
Plant response rating, Lambsquarters (lambsquarters [2]; [10]): 100
Plant response rating, Sunflower (sunflower [3]; Rate 125 g/ha, 0 to 100 scale): 10
Plant response rating, Sunflower (sunflower [3]; [7]): 10
Plant response rating, Sunflower (sunflower [3]; [8]): 15
Plant response rating, Downy brome (downy brome; [9]): 10
Plant response rating, Downy brome (downy brome; Rate 250 g/ha, 0 to 100 scale): 60
Plant response rating, Downy brome (downy brome; [10]): 50
Plant response rating, Spring Barley (spring barley; Rate 125 g/ha, 0 to 100 scale): 20
Plant response rating, Spring Barley (spring barley; [7]): 30
Plant response rating, Spring Barley (spring barley; [8]): 35
Plant response rating, Field violet (field violet; Rate 125 g/ha, 0 to 100 scale): 0
Plant response rating, Field violet (field violet; [7]): 0
Plant response rating, Field violet (field violet; [8]): 15
Plant response rating, Veronica hedera (ivyleaf speedwell; Rate 125 g/ha, 0 to 100 scale): 10
Plant response rating, Veronica hedera (ivyleaf speedwell; [7]): 50
Plant response rating, Veronica hedera (ivyleaf speedwell; [8]): 70
Plant response rating, Sugar beet (sugar beet; [9]): 20
Plant response rating, Sugar beet (sugar beet; Rate 250 g/ha, 0 to 100 scale): 40
Plant response rating, Sugar beet (sugar beet; [10]): 50
Plant response rating, Blackgrass (blackgrass; Rate 125 g/ha, 0 to 100 scale): 0
Plant response rating, Blackgrass (blackgrass; [7]): 20
Plant response rating, Blackgrass (blackgrass; [8]): 65
Plant response rating, Russian thistle (Russian thistle [4]; [9]): 0
Plant response rating, Russian thistle (Russian thistle [4]; Rate 250 g/ha, 0 to 100 scale): 0
Plant response rating, Russian thistle (Russian thistle [4]; [10]): 0
Plant response rating, Annual bluegras (annual bluegrass; [9]): 50
Plant response rating, Annual bluegras (annual bluegrass; Rate 250 g/ha, 0 to 100 scale): 50
Plant response rating, Annual bluegras (annual bluegrass; [10]): 60
Plant response rating, LS canarygrass (littleseed canarygrass; Rate 125 g/ha, 0 to 100 scale): 0
Plant response rating, LS canarygrass (littleseed canarygrass; [7]): 30
Plant response rating, LS canarygrass (littleseed canarygrass; [8]): 60
Plant response rating, Lambsquarters (lambsquarters [5]; Rate 125 g/ha, 0 to 100 scale): 30
Plant response rating, Lambsquarters (lambsquarters [5]; [7]): 30
Plant response rating, Lambsquarters (lambsquarters [5]; [8]): 40
Plant response rating, Wild mustard (wild mustard; [9]): 50
Plant response rating, Wild mustard (wild mustard; Rate 250 g/ha, 0 to 100 scale): 40
Plant response rating, Wild mustard (wild mustard; [10]): 90
Plant response rating, Sunflower (sunflower [6]; [9]): 0
Plant response rating, Sunflower (sunflower [6]; Rate 250 g/ha, 0 to 100 scale): 0
Plant response rating, Sunflower (sunflower [6]; [10]): 5
Plant response rating, Deadnettle (deadnettle; Rate 125 g/ha, 0 to 100 scale): 20
Plant response rating, Deadnettle (deadnettle; [7]): 10
Plant response rating, Deadnettle (deadnettle; [8]): 70
